Measured values reported in US20230339900A1, “CASEIN KINASE 1 DELTA MODULATORS” (Janssen Pharmaceutica NV, priority 2020, published 2023).

Key:
[1] = biological target: human recombinant GST cleaved CSNK1D (Homo sapiens (Human), UniProt P48730); assay: Purified enzyme assay (ADP-Glo Kinase Assay); type: biochemical; conditions: 2 nM CSNK1D, peptide substrate 150 μM, ATP 20 μM, 45 minutes room temperature
Method: In this assay, CSNK1D phosphorylates a substrate peptide PLSRTL-pS-VASLPGL in the presence of ATP. […] This assay monitors CSNK1D kinase activity by measuring the amount of ADP produced in the assay. A substrate mix is prepared by diluting peptide substrate (final concentration 150 μM) with ATP (final concentration 20 μM) in assay buffer (50 mM Tris/HCl pH 7.4+10 mM MgCl2+1 mM DTT+0.1% BSA). The substrate mix is added to each well of a low volume, 384-well, white opaque plate. Test compounds were diluted in HBSS and added in a dose-response to the plate. To start the reaction, 2 nM of constitutively active human recombinant GST cleaved CSNK1D (University of Dundee, clone DU 19064, stored at 0.28 mg/mL in 50 mM Tris/HCl pH 7.5, 150 mM NaCl, 270 mM Sucrose, 0.1 mM EGTA, 0.1% 2-mercaptoethanol, 0.02% Brij-35.1 mM benzamidine, 0.2 mM PMSF) was added to each well and the plate centrifuged for 5 minutes at 1500 rpm. The total volume of each reaction is 5 ul (2 μL of substrate mix, 1 μL of diluted compounds, and 2 μL of human recombinant CSNK1D). The plates are incubated for 45 minutes at room temperature.
ADP was quantified using the ADP-Glo™ Kinase Assay. ADP-Glo Reagent (5 μL) was added to each well. After a 1 hour incubation at room temperature, Kinase Detection Reagent (10 μL) was added to each well and incubated for 30 minutes. Luminescence was measured on the Perkin Elmer Wallac EnVision 2104 Multi-label Reader. The raw data from the Envision is used to calculate percent activity.

[2] = biological target: human CSNK1D tagged with nanoluciferase (Homo sapiens (Human), UniProt P48730); assay: Whole Cell nBRET CSNK1D Binding Assay; conditions: living CHO cells stably expressing human CSNK1D-nanoluciferase; NanoBret tracer 130 nM; 2 hours 37° C.; read-out: CSNK1D BRET IC50
human CSNK1D tagged with nanoluciferase, sequence (P48730 whole entry): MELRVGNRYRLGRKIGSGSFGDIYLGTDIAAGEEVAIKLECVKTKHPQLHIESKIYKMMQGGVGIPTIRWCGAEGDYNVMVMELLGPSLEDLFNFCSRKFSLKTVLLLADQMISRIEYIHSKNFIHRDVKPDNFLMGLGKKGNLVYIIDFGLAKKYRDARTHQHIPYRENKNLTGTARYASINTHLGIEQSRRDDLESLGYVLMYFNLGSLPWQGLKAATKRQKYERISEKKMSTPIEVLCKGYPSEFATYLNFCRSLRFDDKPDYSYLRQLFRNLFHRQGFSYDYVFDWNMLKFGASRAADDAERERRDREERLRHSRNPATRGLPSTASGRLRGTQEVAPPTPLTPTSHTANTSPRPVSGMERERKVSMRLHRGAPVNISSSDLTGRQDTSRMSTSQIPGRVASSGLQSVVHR
Method: This cellular binding assay uses a bioluminescence resonance energy transfer to measure human CSNK1D binding activity in living Chinese Hamster Ovary (CHO) cells that are stably expressing human CSNK1D tagged with nanoluciferase. The cells were grown to confluency in growth media (DMEM:F12, 50 u/mLPen/Strep, […] glutamine, and 0.6 mg/mL G418) in 10 cm^2 dishes. Cells were seeded onto white, opaque 384-well plates (Corning, cat #3704) at a density of 8,000 cells/well in serum-free OptiMEM and left to incubated overnight at 37° C., […]. The next day, test compounds were added in a dose response to the plate followed by a NanoBret tracer (130 nM). The plate is mixed on an orbital shaker for 30 seconds, then placed in a 37° C. incubator for 2 hours. NanoBret Nano-Glo Substrate solution (20 μL) is added to all wells and incubated for 3 minutes at room temperature. Donor (450 nm) and acceptor (630 nm) emissions are then measured within 10 minutes using a ClarioStar plate reader. The data is used to calculate millibret units, defined as (E630/E450)*1000. Bret emissions are then graphed against the log of compound concentrations and these graphs are used to determine the IC50 of each compound.

human recombinant GST cleaved CSNK1D, sequence (P48730 whole entry): as above

Compound | AC50 [1] [nM] | IC50 [2] [nM]
Fc1ccc(-c2nn(C3CCOC3)cc2-c2ccnc3[nH]ccc23)nc1 (racemic) [Example 74, (R/S)-4-[3-(5-Fluoro-2-pyridyl)-1-tetrahydrofuran-3-yl-pyrazol-4-yl]-1H-pyrrolo[2,3-b]pyridine] | 36 | 218
Cn1cc(-c2ccnc3[nH]c(C4(O)CCOC4)cc23)c(-c2ccc(F)cn2)n1 (racemic) [Example 96, (R/S)-3-(4-(3-(5-Fluoropyridin-2-yl)-1-methyl-1H-pyrazol-4-yl)-1H-pyrrolo[2,3-b]pyridin-2-yl)tetrahydrofuran-3-ol] | 4 | 148
Cn1cc(-c2ccnc3[nH]cc(CC4CCOC4)c23)c(-c2ccc(F)cn2)n1 (racemic) [Example 97, (R/S)-4-[3-(5-Fluoro-2-pyridyl)-1-methyl-pyrazol-4-yl]-3-(tetrahydrofuran-3-ylmethyl)-1H-pyrrolo[2,3-b]pyridine] | 384 | > 10000
CCC(=O)Nc1cc(-c2cn(C)nc2-c2ccc(F)cn2)ccn1 [Example 1, N-(4-(3-(5-Fluoropyridin-2-yl)-1-methyl-1H-pyrazol-4-yl)pyridin-2-yl)propionamide] | 5 | 107
Cn1cc(-c2ccnc3c2CCC3)c(-c2ccc(F)cn2)n1 [Example 2, 4-(3-(5-Fluoropyridin-2-yl)-1-methyl-1H-pyrazol-4-yl)-6,7-dihydro-5H-cyclopenta[b]pyridine] | 37 | 955
Cn1cc(-c2ccnc3c2CC(=O)N3)c(-c2ccc(F)cn2)n1 [Example 3, 4-(3-(5-Fluoropyridin-2-yl)-1-methyl-1H-pyrazol-4-yl)-1,3-dihydro-2H-pyrrolo[2,3-b]pyridin-2-one] | 58 | 1500
Cn1cc(-c2ccnc3cc[nH]c23)c(-c2ccc(F)cn2)n1 [Example 4, 7-(3-(5-Fluoropyridin-2-yl)-1-methyl-1H-pyrazol-4-yl)-1H-pyrrolo[3,2-b]pyridine] | 118 | 2360
Cn1cc(-c2ccnc3cn[nH]c23)c(-c2ccc(F)cn2)n1 [Example 5, 7-(3-(5-Fluoropyridin-2-yl)-1-methyl-1H-pyrazol-4-yl)-1H-pyrazolo[4,3-b]pyridine] | 15 | 460
Cn1cc(-c2ccnc3[nH]ccc23)c(-c2cnco2)n1 [Example 6, 5-(1-Methyl-4-(1H-pyrrolo[2,3-b]pyridin-4-yl)-1H-pyrazol-3-yl)oxazole] | 41 | 1420
Cn1cc(-c2ccnc3[nH]ccc23)c(-c2ncco2)n1 [Example 7, 2-(1-Methyl-4-(1H-pyrrolo[2,3-b]pyridin-4-yl)-1H-pyrazol-3-yl)oxazole] | 38 | 128
Cc1cc(-c2cn(C)nc2-c2ncco2)c2cn[nH]c2n1 [Example 8, 2-(1-Methyl-4-(6-methyl-1H-pyrazolo[3,4-b]pyridin-4-yl)-1H-pyrazol-3-yl)oxazole] | 783 | > 10000
Cn1cnc(-c2nn(C)cc2-c2ccnc3[nH]ccc23)c1 [Example 9, 4-(1-Methyl-3-(1-methyl-1H-imidazol-4-yl)-1H-pyrazol-4-yl)-1H-pyrrolo[2,3-b]pyridine] | 16 | 568
Cn1cc(-c2ccnc3[nH]ccc23)c(-c2cncn2C)n1 [Example 10, 4-(1-Methyl-3-(1-methyl-1H-imidazol-5-yl)-1H-pyrazol-4-yl)-1H-pyrrolo[2,3-b]pyridine] | 2280 | > 10000
Cn1cc(-c2ccnc3[nH]ccc23)c(-c2nccn2C)n1 [Example 11, 4-(1-Methyl-3-(1-methyl-1H-imidazol-2-yl)-1H-pyrazol-4-yl)-1H-pyrrolo[2,3-b]pyridine] | 111 | 4360
Cn1cc(-c2ccnc3[nH]ccc23)c(-c2ccns2)n1 [Example 12, 5-(1-Methyl-4-(1H-pyrrolo[2,3-b]pyridin-4-yl)-1H-pyrazol-3-yl)isothiazole] | 50 | 678
Cn1cc(-c2ccnc3[nH]ccc23)c(-c2cscn2)n1 [Example 13, 4-(1-Methyl-4-(1H-pyrrolo[2,3-b]pyridin-4-yl)-1H-pyrazol-3-yl)thiazole] | 28 | 626

Compound | AC50 [1] [nM] | IC50 [2] [nM]
Cn1cc(-c2ccnc3[nH]ccc23)c(-c2cncs2)n1 [Example 14, 5-(1-Methyl-4-(1H-pyrrolo[2,3-b]pyridin-4-yl)-1H-pyrazol-3-yl)thiazole] | 83 | 3130
Cn1cc(-c2ccnc3[nH]ccc23)c(-c2ccsn2)n1 [Example 15, 3-(1-Methyl-4-(1H-pyrrolo[2,3-b]pyridin-4-yl)-1H-pyrazol-3-yl)isothiazole] | 7 | 181
Cn1cc(-c2ccnc3[nH]ccc23)c(-c2nccs2)n1 [Example 16, 2-(1-Methyl-4-(1H-pyrrolo[2,3-b]pyridin-4-yl)-1H-pyrazol-3-yl)thiazole] | 15 | 319
Cn1cc(-c2ccnc3[nH]ccc23)c(-c2ccncc2)n1 [Example 17, 4-[1-Methyl-3-(4-pyridyl)pyrazol-4-yl]-1H-pyrrolo[2,3-b]pyridine] | 101 | 1640
Cn1cc(-c2ccnc3[nH]ccc23)c(-c2ccncc2F)n1 [Example 18, 4-[3-(3-Fluoro-4-pyridyl)-1-methyl-pyrazol-4-yl]-1H-pyrrolo[2,3-b]pyridine] | 26 | 1770
Cn1cc(-c2ccnc3[nH]ncc23)c(-c2ccncc2F)n1 [Example 19, 4-[3-(3-Fluoro-4-pyridyl)-1-methyl-pyrazol-4-yl]-1H-pyrazolo[3,4-b]pyridine] | 92 | 797
Cn1cc(-c2ccnc3[nH]ccc23)c(-c2cncc(F)c2)n1 [Example 21, 4-[3-(5-Fluoro-3-pyridyl)-1-methyl-pyrazol-4-yl]-1H-pyrrolo[2,3-b]pyridine] | 14 | 356
Cc1ccc(-c2nn(C)cc2-c2ccnc3[nH]ccc23)cn1 [Example 22, 4-[1-Methyl-3-(6-methyl-3-pyridyl)pyrazol-4-yl]-1H-pyrrolo[2,3-b]pyridine] | 44 | 1170
Cn1cc(-c2ccnc3[nH]ccc23)c(-c2ccc(OC(F)F)nc2)n1 [Example 23, 4-[3-[6-(Difluoromethoxy)-3-pyridyl]-1-methyl-pyrazol-4-yl]-1H-pyrrolo[2,3-b]pyridine] | 551 | > 10000
Cn1cc(-c2ccnc3[nH]ccc23)c(-c2ccc(Cl)cn2)n1 [Example 24, 4-[3-(5-Chloro-2-pyridyl)-1-methyl-pyrazol-4-yl]-1H-pyrrolo[2,3-b]pyridine] | 34 | 251
Cn1cc(-c2ccnc3[nH]ncc23)c(-c2ccc(Cl)cn2)n1 [Example 25, 4-(3-(5-Chloropyridin-2-yl)-1-methyl-1H-pyrazol-4-yl)-1H-pyrazolo[3,4-b]pyridine] | 693 | 306
Cc1cc(-c2cn(C)nc2-c2ccc(Cl)cn2)c2cn[nH]c2n1 [Example 26, 4-(3-(5-Chloropyridin-2-yl)-1-methyl-1H-pyrazol-4-yl)-6-methyl-1H-pyrazolo[3,4-b]pyridine] | 58 | 2090
Cn1cc(-c2ccnc3[nH]ccc23)c(-c2cc(F)ccn2)n1 [Example 27, 4-[3-(4-Fluoro-2-pyridyl)-1-methyl-pyrazol-4-yl]-1H-pyrrolo[2,3-b]pyridine] | 4 | 178
Cn1cc(-c2ccnc3[nH]ccc23)c(-c2ccc(F)nc2)n1 [Example 28, 4-[3-(6-Fluoro-3-pyridyl)-1-methyl-pyrazol-4-yl]-1H-pyrrolo[2,3-b]pyridine] | 8 | 165
Cn1cc(-c2ccnc3[nH]c(C4COC4)cc23)c(-c2ccc(F)cn2)n1 [Example 92, 4-(3-(5-Fluoropyridin-2-yl)-1-methyl-1H-pyrazol-4-yl)-2-(oxetan-3-yl)-1H-pyrrolo[2,3-b]pyridine] |  | 184
